In patent US9243025B2, “Compounds and pharmaceutical compositions for the treatment of viral infections” (Idenix Pharmaceuticals, LLC, priority 2011, dated 2016):
Like-named read-outs stand apart in the source and are kept apart here.

Assays:
[1] = Cytotoxicity evaluation in GS4.1 cells (Cell Titer 96 AQueous One Solution Cell Proliferation Assay); type: cell-based; conditions: human, cellular viability, treated as in replicon assay, read-out: HCV Replicon CC50
Procedure: (§1) Huh-7 cells containing HCV Coni subgenomic replicon (GS4.1 cells), (C. Seeger; Fox Chase University, Philadelphia, Pa., USA), are grown in Dulbecco's Modified Eagle Medium (DMEM) supplemented with 10% fetal bovine serum (FBS), 2 mM L-glutamine, 110 mg/L sodium pyruvate, 1× non-essential amino acids, 100 U/mL penicillin-streptomycin and 0.5 mg/mL G418 (Invitrogen). For dose-response testing, the cells are seeded in 96-well plates at 7.5×10^3 cells/well in a volume of 50 μL and incubated at 37° C./5% CO2. Three hours after plating, 50 μL of ten 2-fold serial dilutions of compounds (highest concentration, 75 μM) are added and cell cultures were incubated at 37° C./5% CO2 in the presence of 0.5% DMSO. Alternatively, compounds are tested at a single concentration of 15 μM. In all cases, Huh-7 cells lacking the HCV replicon served as negative control. The cells are incubated in the presence of compounds for 72 hours after which they were monitored for expression of the NS4A protein by enzyme-linked immunosorbent assay (ELISA). For this, the plates were then fixed for 1 min with 1:1 acetone:methanol, washed twice with phosphate-buffered saline (PBS), 0.1% Tween 20, blocked for 1 hour at room temperature with TNE buffer containing 10% FBS and then incubated for 2 h at 37° C. with the anti-NS4A mouse monoclonal antibody A-236 (ViroGen) diluted in the same buffer. After washing three times with PBS, 0.1% Tween 20, the cells are incubated 1 hour at 37° C. with anti-mouse immunoglobulin G-peroxidase conjugate in TNE, 10% FBS. After washing as described above, the reaction is developed with O-phenylenediamine (Zymed). The reaction is stopped after 30 minutes with […] and the absorbance is read at 492 nm using a Sunrise Tecan spectrophotometer. EC50 values are determined from the % inhibition versus concentration data using a sigmoidal non-linear regression analysis based on four parameters with Tecan Magellan software. When screening at a single concentration, the results are expressed as % inhibition at 15 μM. For cytotoxicity evaluation, GS4.1 cells are treated with compounds as described above and cellular viability was monitored using a Cell Titer 96 AQueous One Solution Cell Proliferation Assay (Promega). CC50 values are determined from the % cytotoxicity versus concentration data with Tecan Magellan software as described above.

[2] = tested on: Huh-7 cells containing HCV Coni subgenomic replicon (GS4.1 cells); assay: HCV replicon assay; type: cell-based; conditions: read-out: HCV Replicon EC50
Procedure: as §1
Compounds presented in the table below were assayed according to the replicon assay described above.

[3] = Hepatitis C virus, Huh-7, 72 h, GS4.1 cells, 72 hours incubation, NS4A expression by ELISA

Row | SMILES | CC50 at 72 h [1] [µM] | EC50 [2, 3] [nM] | EC50 ([2]; Hepatitis C virus, Huh-7, 72 h) [nM] | EC50 ([2]; GS4.1 cells, 72 hours incubation, NS4A expression by ELISA) [nM]
1 | COC(=O)C(CC(C)C)NP(=O)(NC(CC(C)C)C(=O)OC)OC[C@H]1O[C@@H](n2cnc3c(OC)nc(N)nc32)[C@@](C)(O)C1O (stereo in doubt) [Compound 3] | > 75 | 100 to 1000 | – | –
2 | COc1nc(N)nc2c1ncn2[C@@H]1O[C@H](COP(=O)(NC(CC(C)C)C(=O)OC(C)C)NC(CC(C)C)C(=O)OC(C)C)C(O)C1(C)O (stereo in doubt) [Compound 12] | > 75 | 100 to 1000 | – | –
3 | CCOC(=O)C(Cc1ccccc1)NP(=O)(NC(Cc1ccccc1)C(=O)OCC)OC[C@H]1O[C@@H](n2cnc3c(OC)nc(N)nc32)C(C)(O)C1O (stereo in doubt) [Compound 16] | ≤ 75 | < 100 | – | –
4 | COC(=O)C(CC(C)C)NP(=O)(NC(CC(C)C)C(=O)OC)OC[C@H]1O[C@@H](n2cnc3c(OC)nc(N)nc32)[C@@]2(C)OC(=O)OC12 (stereo partly shown) [Compound 4] | > 75 | < 100 | – | –
5 | CCOC(=O)C(CC(C)C)NP(=O)(NC(CC(C)C)C(=O)OCC)OC[C@H]1O[C@@H](n2cnc3c(NC4CC4)nc(N)nc32)C(C)(O)C1O (stereo partly shown) [Compound 6] | > 75 | < 100 | – | –
6 | COC(=O)C(CC(C)C)NP(=O)(NC(CC(C)C)C(=O)OC)OC[C@H]1O[C@@H](n2cnc3c(NC4CC4)nc(N)nc32)C(C)(O)C1O (stereo partly shown) [Compound 8] | > 75 | 100 to 1000 | – | –
7 | COc1nc(N)nc2c1ncn2[C@@H]1O[C@H](COP(=O)(NC(Cc2ccccc2)C(=O)OC(C)C)NC(Cc2ccccc2)C(=O)OC(C)C)C(O)C1(C)O (stereo partly shown) [Compound 13] | ≤ 75 | 100 to 1000 | – | –
8 | C#CC1(F)C(O)[C@@H](COP(=O)(NC(CC(C)C)C(=O)OCC)NC(CC(C)C)C(=O)OCC)O[C@H]1n1cnc2c(=O)[nH]c(N)nc21 (stereo partly shown) [Compound 22] | > 75 | > 10000 | – | –
9 | C#CC1(F)C(O)[C@@H](COP(=O)(NC(CC(C)C)C(=O)OC)NC(CC(C)C)C(=O)OC)O[C@H]1n1cnc2c(=O)[nH]c(N)nc21 (stereo partly shown) [Compound 23] | > 75 | > 10000 | – | –
10 | CCOC(=O)[C@@H](NP(=O)(N[C@H](C(=O)OCC)c1ccccc1)OC[C@H]1O[C@@H](n2cnc3c(NC4CC4)nc(N)nc32)C(C)(O)C1O)c1ccccc1 (stereo partly shown) [Compound 30] | > 75 | 1000 to 10000 | – | –
11 | CCOC(=O)[C@H](C)NP(=O)(N[C@@H](C)C(=O)OCC)OC[C@H]1O[C@@H](n2cnc3c(NC4CC4)nc(N)nc32)[C@@](C)(O)C1O (stereo partly shown) [Compound 31] | > 75 | 100 to 1000 | – | –
12 | CCOC(=O)[C@H](Cc1ccccc1)NP(=O)(N[C@@H](Cc1ccccc1)C(=O)OCC)OC[C@H]1O[C@@H](n2cnc3c(NC4CC4)nc(N)nc32)[C@@](C)(O)C1O (stereo partly shown) [Compound 32] | > 75 | < 100 | – | –
13 | CCCOc1nc(N)nc2c1ncn2[C@@H]1O[C@H](COP(=O)(N[C@@H](CC(C)C)C(=O)OCC)N[C@@H](CC(C)C)C(=O)OCC)C(O)C1(C)O (stereo partly shown) [Compound 33] | ≤ 75 | < 100 | – | –
14 | CCOC(=O)[C@H](CC(C)C)NP(=O)(N[C@@H](CC(C)C)C(=O)OCC)OC[C@H]1O[C@@H](n2cnc3c(N4CCOCC4)nc(N)nc32)C(C)(O)C1O (stereo partly shown) [Compound 34] | > 75 | 100 to 1000 | – | –
15 | CCOC(=O)[C@H](CC(C)C)NP(=O)(N[C@@H](CC(C)C)C(=O)OCC)OC[C@H]1O[C@@H](n2cnc3c(N(C)C)nc(N)nc32)C(C)(O)C1O (stereo partly shown) [Compound 35] | > 75 | < 100 | – | –
16 | CCOC(=O)[C@H](CC(C)C)NP(=O)(N[C@@H](CC(C)C)C(=O)OCC)OC[C@H]1O[C@@H](n2cnc3c(N4CCCC4)nc(N)nc32)C(C)(O)C1O (stereo partly shown) [Compound 36] | > 75 | < 100 | – | –
17 | CCOC(=O)[C@H](CC(C)C)NP(=O)(N[C@@H](CC(C)C)C(=O)OCC)OC[C@H]1O[C@@H](n2cnc3c(=O)[nH]c(N)nc32)C(C)(O)C1O (stereo partly shown) [Compound 37] | > 75 | 1000 to 10000 | – | –
18 | CCOC(=O)[C@H](CC(C)C)NP(=O)(N[C@@H](CC(C)C)C(=O)OCC)OC[C@H]1O[C@@H](n2cnc3c(NC4CCCC4)nc(N)nc32)C(C)(O)C1O (stereo partly shown) [Compound 38] | ≤ 75 | < 100 | – | –
19 | CCCOC(=O)[C@H](CC(C)C)NP(=O)(N[C@@H](CC(C)C)C(=O)OCCC)OC[C@H]1O[C@@H](n2cnc3c(OC)nc(N)nc32)[C@@](C)(O)C1O (stereo partly shown) [Compound 43] | ≤ 75 | < 100 | – | –

Row | SMILES | CC50 at 72 h [1] [µM] | EC50 [2, 3] [nM] | EC50 ([2]; Hepatitis C virus, Huh-7, 72 h) [nM] | EC50 ([2]; GS4.1 cells, 72 hours incubation, NS4A expression by ELISA) [nM]
20 | CCCCOC(=O)[C@H](CC(C)C)NP(=O)(N[C@@H](CC(C)C)C(=O)OCCCC)OC[C@H]1O[C@@H](n2cnc3c(OC)nc(N)nc32)[C@@](C)(O)C1O (stereo partly shown) [Compound 44] | ≤ 75 | < 100 | – | –
21 | C#CC1(F)C(O)[C@@H](COP(=O)(NCC(=O)OCC)NCC(=O)OCC)O[C@H]1n1cnc2c(=O)[nH]c(N)nc21 (stereo partly shown) [Compound 48] | > 75 | 1000 to 10000 | – | –
22 | CCOC(=O)[C@H](CC(C)C)NP(=O)(N[C@@H](CC(C)C)C(=O)OCC)OC[C@H]1O[C@@H](n2ccc(OC)nc2=O)[C@](C)(O)[C@@H]1O [Compound 55] | > 75 | 100 to 1000 | – | –
23 | COc1ccn([C@@H]2O[C@H](COP(=O)(NCc3ccccc3)OCCSC(=O)C(C)(C)CO)[C@@H](O)[C@@]2(C)O)c(=O)n1 (stereo partly shown) [Compound 56] | > 75 | < 100 | – | –
24 | COc1nc(N)nc2c1ncn2[C@@H]1O[C@H](COP(=O)(NC(C)C)OCCSC(=O)C(C)(C)CO)C(O)C1(C)O (stereo partly shown) [Compound 57] | – | – | 100 to 1000 | –
25 | COc1nc(N)nc2c1ncn2[C@@H]1O[C@H](COP(=O)(NCc2ccccc2)OCCSC(=O)C(C)(C)CO)C(O)C1(C)O (stereo partly shown) [Compound 57] | > 75 | – | < 100 | –
26 | CCOC(=O)[C@@H](NP(=O)(N[C@@H](C(=O)OCC)C(C)C)OC[C@H]1O[C@@H](n2cnc3c(OC)nc(N)nc32)C(C)(O)C1O)C(C)C (stereo partly shown) [Compound 58] | > 75 | < 100 | – | –
27 | CCOC(=O)[C@@H](NP(=O)(N[C@@H](C(=O)OCC)c1ccccc1)OC[C@H]1O[C@@H](n2cnc3c(OC)nc(N)nc32)C(C)(O)C1O)c1ccccc1 (stereo partly shown) [Compound 59] | > 75 | 1000 to 10000 | – | –
28 | COC(=O)C1CCCN1P(=O)(OC[C@H]1O[C@@H](n2cnc3c(OC)nc(N)nc32)C(C)(O)C1O)N1CCCC1C(=O)OC (stereo partly shown) [Compound 60] | > 75 | 100 to 1000 | – | –
29 | CCOC(=O)[C@@H](CC(C)C)NP(=O)(N[C@H](CC(C)C)C(=O)OCC)OC[C@H]1O[C@@H](n2cnc3c(OC)nc(N)nc32)C(C)(O)C1O (stereo partly shown) [Compound 61] | > 75 | – | – | 1000 to 10000
30 | CCOC(=O)[C@H](CC(C)C)NP(=O)(N[C@H](CC(C)C)C(=O)OCC)OC[C@H]1O[C@@H](n2cnc3c(OC(C)C)nc(N)nc32)C(C)(O)C1O (stereo partly shown) [Compound 62] | > 75 | < 100 | – | –
31 | CCOC(=O)[C@H](CC)NP(=O)(N[C@H](CC)C(=O)OCC)OC[C@H]1O[C@@H](n2cnc3c(OC)nc(N)nc32)C(C)(O)C1O (stereo partly shown) [Compound 63] | > 75 | 100 to 1000 | – | –
32 | CCOC(=O)[C@H](CC(C)C)NP(=O)(N[C@H](CC(C)C)C(=O)OCC)OC[C@H]1O[C@@H](n2cnc3c(OCC)nc(N)nc32)C(C)(O)C1O (stereo partly shown) [Compound 64] | > 75 | < 100 | – | –
33 | CCOC(=O)[C@H](CC(C)C)NP(=O)(N[C@@H](CC(C)C)C(=O)OCC)OC[C@H]1O[C@@H](n2cnc3c(OC)nc(N)nc32)C(C)(O)C1O (stereo partly shown) [Compound 65] | > 75 | < 100 | – | –
34 | CCOC(=O)[C@@H](NP(=O)(N[C@H](C(=O)OCC)C(C)CC)OC[C@H]1O[C@@H](n2cnc3c(N4CCCC4)nc(N)nc32)C(C)(O)C1O)C(C)CC (stereo partly shown) [Compound 67] | > 75 | 100 to 1000 | – | –
35 | CCOC(=O)[C@@H](NP(=O)(N[C@H](C(=O)OCC)C(C)C)OC[C@H]1O[C@@H](n2cnc3c(N4CCCC4)nc(N)nc32)C(C)(O)C1O)C(C)C (stereo partly shown) [Compound 68] | > 75 | < 100 | – | –
36 | CCOC(=O)[C@H](Cc1ccccc1)NP(=O)(N[C@@H](Cc1ccccc1)C(=O)OCC)OC[C@H]1O[C@@H](n2cnc3c(N4CCCC4)nc(N)nc32)C(C)(O)C1O (stereo partly shown) [Compound 69] | ≤ 75 | < 100 | – | –
37 | CCOC(=O)C(NP(=O)(NC(C(=O)OCC)C(C)C)OC[C@H]1O[C@@H](n2cnc3c(NC4CC4)nc(N)nc32)C(C)(O)C1O)C(C)C (stereo partly shown) [Compound 70] | > 75 | 100 to 1000 | – | –
